Test results reported in patent publication US20100210540A1, “USE OF THE PEPTIDE COMBINATION THYMOSIN BETA 4 AND DELTA SLEEP INDUCING PEPTIDE AS A THERAPEUTIC AGENT” (priority 2007, published 2010).
Where no end group is shown, it is not given here.

Key:
HIV-1III8 = assay: HIV-1 antiviral assay in CEM-SS cells (MTS readout)
HCMV strain AD169 = assay: HCMV plaque formation assay in MRC-5 cells; type: cell-based; conditions: for inhibition of HCMV plaque formation as compared to the virus control experiment: 10 micrograms per ml, 7-10 days
From the text: Ganciclovir was used as positive control.

Interferon-γ (IFN-γ) = assay: Th1/Th2 cytokine profiling assay: IFN-γ; type: cell-based, Balb/c mice; conditions: 10 micrograms per ml; Ovalbumin restimulation; 72 hours
From the text: (§1) The Balb/c mice (originated in 1923, it is a popular strain and is used in many different research disciplines. Also classified as an inbred from the production of 20 or more successive brother-sister matings, the Balb/c mouse is albino and small in size) were immunized on Days 1, 15, and 29 with Ovalbumin (Ovalbumin is the main protein found in egg white, commonly used to stimulate an immunological reaction in test animals) in PBS (5 micrograms/injection). On day 50, spleens of the mice were harvested (3 weeks after last boost with Ovalbumin). Cells were cultured (2×10^5/well in triplicate) and incubated with culture medium or test peptides—10 micrograms per ml—for 30 min. Thereafter, additional Ovalbumin was added to the cells at 10 micrograms/ml for in vitro restimulation of the cells. 72 hours later, cell supernatants were harvested and assayed using the Becton Dickinson Mouse Th1fTh2 Cytokine CBA Kit. This kit can be used to measure Interleukin-2 (IL-2), Interleukin-4 (IL-4), Interleukin-5 (IL-5), Interferon-γ (IFN-γ), and Tumor Necrosis Factor-α (TNF-α) protein levels in a single sample. The kit performance has been optimized for analysis of physiologically relevant concentrations (pg/ml levels) of specific cytokine proteins in tissue culture supernatants and serum samples.

Interleukin-4 (IL-4) = assay: Th1/Th2 cytokine profiling assay: IL-4; type: cell-based, Balb/c mice; conditions: 10 micrograms per ml; Ovalbumin restimulation; 72 hours
From the text: as §1

Interleukin-5 (IL-5) = assay: Th1/Th2 cytokine profiling assay: IL-5; type: cell-based, Balb/c mice; conditions: 10 micrograms per ml; Ovalbumin restimulation; 72 hours
From the text: as §1

RAW 264.7 cells = assay: Phagocytosis assay (Fluorescein-labeled Escherichia coli, flow cytometry); type: cell-based, Mouse; conditions: 10 micrograms per ml
Experimental: RAW 264.7 (Mouse leukaemic monocyte macrophage cell line) cells were obtained from ATCC and grown in RPMI 1640 medium containing 10% FBS. Cells were incubated in 12×75 mm tubes at 37° C. with test peptides—10 micrograms per ml—for 30 min prior to adding Fluorescein-labeled Escherichia coli bacteria as the agent to be ingested. After the cells were incubated for additional 60 min at 37° C. and allowed to ingest the Fluorescein-labeled Escherichia coli bacteria, cells were fixed with 1% paraformaldehyde. The samples were then analyzed by flow cytometry to determine the amount of phagocytosis as a function of brightness (the greater the phagocytic activity, the more fluorescence in the macrophage population). Data are reported as % positive and the mean fluorescence intensity (MFI) of positively stained cells.

[1] = tested on: hepatitis B virus (HBV) ayw strain; assay: HBV experimental assay system (secreted HBV DNA, TaqMan PCR); type: cell-based; conditions: 10 micrograms per ml; HepG2-2.2.15 cells; six days
[2] = tested on: cyclic AMP generation in human peripheral blood mononuclear cells (PBMC); assay: cAMP induction assay (ELISA); type: cell-based; conditions: 10 micrograms per ml; 10 min at 37° C.
From the text: Adenosine 3′,5′-cyclic monophosphate (cyclic AMP; cAMP) is one of the most important “second messengers” involved as a modulator of physiological processes. cAMP is also involved in regulating neuronal, glandular, cardiovascular, immune and other functions and actions in a regulatory way. For being a second messenger, cAMP has the following characteristics to work effectively: 1) Amplification—when a few peptide molecules signal the cell, it needs to respond with a signal that is strong enough to get a job done without repeated high levels of stimulation. 2) Control—eventually a response must be shut down, and there are instances when its necessary to respond a little or a lot—so control is needed. 3)—Specificity—when a peptide is utilized, a given cell should respond in a specific way. Not all cells will respond to this peptide and therefore they cannot have the same effect in all the cells. Elevated levels of cAMP in human cells are associated with the suppression of cell activation.
The cAMP kit was used as an immunoassay for the quantitative determination of cyclic AMP generation in human peripheral blood mononuclear cells (PBMC). […]; 50 micrograms per ml), or test peptides—10 micrograms per ml—were added. […]. NaOH was added to neutralize the samples. Plates were centrifuged for 15 min at 2500 rpm and the supernatants removed. […]

HUVEC = assay: Endothelial tube formation assay; type: cell-based, human; conditions: 10 micrograms per ml, 20 hours
From the text: Positive control was vehicle only.

[3] = tested on: Tumor Necrosis Factor-α (TNF-α); assay: Th1/Th2 cytokine profiling assay: TNF-α; type: cell-based, Balb/c mice; conditions: 10 micrograms per ml; Ovalbumin restimulation; 72 hours
From the text: as §1

[4] = tested on: Primary Human endothelial cells (HUVEC); assay: Endothelial cell migration assay; type: cell-based; conditions: 10 micrograms per ml, 22 hours
Experimental: Thereafter, designated concentration of testing peptides—10 micrograms per ml—was added in duplicate wells.

[5] = Th1/Th2 cytokine profiling assay: IL-2; type: cell-based, Balb/c mice; conditions: 10 micrograms per ml; Ovalbumin restimulation; 72 hours
From the text: as §1

| Molecule | antiviral activity of positive control compounds (HIV-1III8) | production of IFN-γ in murine spleen cells (decreased by) (Interferon-γ (IFN-γ)) | inhibition of HCMV plaque formation as compared to the virus control experiment (HCMV strain AD169) | production of IL-4 in murine spleen cells (induced by) (Interleukin-4 (IL-4)) | production of IL-5 in murine spleen cells (change) (Interleukin-5 (IL-5)) | inhibition of HBV replication on tested liver cells [1] | cAMP formation in PBMC (induced by) [2] | inhibition of the tube formation of human endothelial cells (HUVEC) | production of TNF-alpha in murine spleen cells (change) [3] | production of IL-2 in murine spleen cells (induced by) [5] | further results |
| --- | --- | --- | --- | --- | --- | --- | --- | --- | --- | --- | --- |
| Cc1cn([C@H]2C[C@H](N=[N+]=[N-])[C@@H](CO)O2)c(=O)[nH]c1=O [AZT] | expected levels of antiviral activity | – | – | – | – | – | – | – | – | – | – |
| Nc1nc(O)c2ncn(COC(CO)CO)c2n1 [Ganciclovir, reference compound] | – | – | – | – | – | – | – | – | – | – | antiviral activity of positive control compound (HCMV strain AD169; positive control): expected levels of antiviral activity |
| CC(C)(C)NC(=O)[C@@H]1CN(Cc2cccnc2)CCN1C[C@@H](O)C[C@@H](Cc1ccccc1)C(=O)N[C@H]1c2ccccc2C[C@H]1O [indinavir] | expected levels of antiviral activity | – | – | – | – | – | – | – | – | – | – |
| Ac-Ser-Asp-Lys-Pro-Asp-Met-Ala-Glu-Ile-Glu-Lys-Phe-Asp-Lys-Ser-Lys-Leu-Lys-Lys-Thr-Glu-Thr-Gln-Glu-Lys-Asn-Pro-Leu-Pro-Ser-Lys-Glu-Thr-Ile-Glu-Gln-Glu-Lys-Gln-Ala-Gly-Glu-Ser-OH (SDKPDMAEIEKFDKSKLKKTETQEKNPLPSKETIEQEKQAGES; printed: Ser-Asp-Lys-Pro-Asp-Met-Ala-Glu-Ile-Glu-Lys-Phe-Asp-Lys-Ser-Lys-Leu-Lys-Lys-Thr-Glu-Thr-Gln-Glu-Lys-Asn-Pro-Leu-Pro-Ser-Lys-Glu-Thr-Ile-Glu-Gln-Glu-Lys-Gln-Ala-Gly-Glu-Ser-) [Peptide 1] | – | 52.7% | 1.0% | 31.6% | did not significantly change | no effect | 15.8% | 23% | did not significantly change | did not significantly change | phagocytosis induced, as compared to the control experiment (RAW 264.7 cells; 30 min preincubation, 60 min ingestion): 45.7%; inhibition of the migration of human endothelial cells [4]: 3% |
| Trp-Ala-Gly-Gly-Asp-Ala-Ser-Gly-Glu-OH (WAGGDASGE-OH) [Peptide 2] | – | 40.8% | 4.4% | 70.6% | did not significantly change | no effect | no effects | 3% | did not significantly change | 38.1% | inhibitory effects on the phagocytic activity of murine macrophages (RAW 264.7 cells): no inhibitory effects |
